Toxic doses and inconclusive results are not listed. The calls were made as follows: active = survival T/C of 150% or more; inactive = T/C below 125% in these data.
System: P388 leukemia ip, CD2F1 mice, survival T/C
Assay: NCI In Vivo Anticancer Drug Screen. Data for tumor model P388 Leukemia (intraperitoneal) in CD2F1 (CDF1) mice
Details: endpoint: median survival time, vehicle: saline, higher = longer survival
Method in brief: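 Mice carrying the transplanted tumor received test compound or vehicle. Survival was recorded in each group, and the value is the treated-group measurement divided by that of the vehicle-treated control group.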

Measured: T/C

Clc1ccc(C(c2ccccc2Cl)C(Cl)Cl)cc1 (configuration not stated)
inactive: dose: 8.0 mg/kg/injection, schedule: Q03HX024 (ip) 105 % of control | dose: 16.0 mg/kg/injection, schedule: Q03HX008 (ip) 100 % of control | dose: 16.0 mg/kg/injection, schedule: Q03HX016 (ip) 100 % of control | dose: 16.0 mg/kg/injection, schedule: Q03HX024 (ip) 100 % of control | dose: 32.0 mg/kg/injection, schedule: Q03HX008 (ip) 100 % of control | dose: 32.0 mg/kg/injection, schedule: Q03HX016 (ip) 100 % of control | dose: 32.0 mg/kg/injection, schedule: Q03HX024 (ip) 100 % of control | dose: 64.0 mg/kg/injection, schedule: Q01DX009 (ip) 90 % of control | dose: 64.0 mg/kg/injection, schedule: Q03HX008 (ip) 100 % of control | dose: 64.0 mg/kg/injection, schedule: Q03HX016 (ip) 115 % of control | dose: 64.0 mg/kg/injection, schedule: Q03HX024 (ip) 110 % of control | dose: 64.0 mg/kg/injection, schedule: Q04DX003 (ip) 104 % of control | dose: 128.0 mg/kg/injection, schedule: Q01DX001 (ip) 109 % of control | dose: 128.0 mg/kg/injection, schedule: Q01DX009 (ip) 90 % of control | dose: 128.0 mg/kg/injection, schedule: Q03HX008 (ip) 100 % of control | dose: 128.0 mg/kg/injection, schedule: Q03HX016 (ip) 110 % of control | dose: 128.0 mg/kg/injection, schedule: Q03HX024 (ip) 100 % of control | dose: 128.0 mg/kg/injection, schedule: Q04DX003 (ip) 100 % of control | dose: 128.0 mg/kg/injection, schedule: Q08DX002 (ip) 100 % of control | dose: 256.0 mg/kg/injection, schedule: Q01DX001 (ip) 100 % of control | dose: 256.0 mg/kg/injection, schedule: Q01DX001 (oral) 104 % of control | dose: 256.0 mg/kg/injection, schedule: Q01DX009 (ip) 95 % of control | dose: 256.0 mg/kg/injection, schedule: Q01DX009 (oral) 104 % of control | dose: 256.0 mg/kg/injection, schedule: Q04DX003 (ip) 100 % of control | dose: 256.0 mg/kg/injection, schedule: Q04DX003 (oral) 100 % of control | dose: 256.0 mg/kg/injection, schedule: Q08DX002 (ip) 90 % of control | dose: 512.0 mg/kg/injection, schedule: Q01DX001 (ip) 109 % of control | dose: 512.0 mg/kg/injection, schedule: Q01DX001 (oral) 100 % of control | dose: 512.0 mg/kg/injection, schedule: Q01DX009 (ip) 86 % of control | dose: 512.0 mg/kg/injection, schedule: Q01DX009 (oral) 109 % of control | dose: 512.0 mg/kg/injection, schedule: Q04DX003 (ip) 90 % of control | dose: 512.0 mg/kg/injection, schedule: Q04DX003 (oral) 100 % of control | dose: 512.0 mg/kg/injection, schedule: Q08DX002 (ip) 100 % of control | dose: 1024.0 mg/kg/injection, schedule: Q01DX001 (ip) 100 % of control | dose: 1024.0 mg/kg/injection, schedule: Q01DX001 (oral) 100 % of control | dose: 1024.0 mg/kg/injection, schedule: Q01DX009 (oral) 100 % of control | dose: 1024.0 mg/kg/injection, schedule: Q04DX003 (ip) 90 % of control | dose: 1024.0 mg/kg/injection, schedule: Q04DX003 (oral) 100 % of control | dose: 1024.0 mg/kg/injection, schedule: Q08DX002 (ip) 104 % of control | dose: 2048.0 mg/kg/injection, schedule: Q01DX001 (oral) 109 % of control | dose: 2048.0 mg/kg/injection, schedule: Q01DX009 (oral) 100 % of control | dose: 2048.0 mg/kg/injection, schedule: Q04DX003 (oral) 100 % of control

— PubChem BioAssay AID330 (DTP/NCI, 2004)
